Results: ChEMBL document CHEMBL5131382, “Facile and divergent optimization of chromazonarol enabled the identification of simplified drimane meroterpenoids as novel pharmaceutical leads” (Eur J Med Chem, 2022)

Assays:
Assay type in all cases: functional
[1] = tested on: Rhizoctonia solani; experiment: Antifungal activity against Rhizoctonia solani at 150 uM
[2] = tested on: Sclerotinia sclerotiorum; experiment: Antifungal activity against Sclerotinia sclerotiorum at 150 uM
[3] = tested on: Pyricularia oryzae; experiment: Antifungal activity against Pyricularia oryzae at 150 uM
[4] = tested on: Fusarium graminearum; experiment: Antifungal activity against Fusarium graminearum at 150 uM
[5] = tested on: Phytophthora capsici; experiment: Antifungal activity against Phytophthora capsici at 150 uM

CC(=O)Oc1ccc2c(c1)C[C@@H]1[C@@]3(C)CCCC(C)(C)[C@@H]3CC[C@@]1(C)O2
inhibition at 150 µM [1]: < 60% | inhibition at 150 µM [2]: < 60% | inhibition at 150 µM [3]: < 60% | inhibition at 150 µM [4]: < 60% | inhibition at 150 µM [5]: < 60%

CC1(C)CCC[C@@]2(C)C1CC[C@@]1(C)Oc3ccc(-c4cnc5ccccc5c4)cc3C[C@@H]12 (stereo not given in full)
inhibition at 150 µM [1]: < 60% | inhibition at 150 µM [2]: < 60% | inhibition at 150 µM [3]: < 60% | inhibition at 150 µM [4]: < 60% | inhibition at 150 µM [5]: < 60%

CC1(C)CCC[C@]2(C)[C@H]3Cc4cc(OC(=O)c5cccnc5)ccc4O[C@]3(C)CC[C@@H]12
inhibition at 150 µM [1]: < 60% | inhibition at 150 µM [2]: < 60% | inhibition at 150 µM [3]: < 60% | inhibition at 150 µM [4]: < 60% | inhibition at 150 µM [5]: < 60%

CC1(C)CCC[C@]2(C)[C@H]3Cc4cc(Oc5ccccn5)ccc4O[C@]3(C)CC[C@@H]12
inhibition at 150 µM [1]: < 60% | inhibition at 150 µM [2]: < 60% | inhibition at 150 µM [3]: < 60% | inhibition at 150 µM [4]: < 60% | inhibition at 150 µM [5]: < 60%

CC1(C)CCC[C@]2(C)[C@H]3Cc4cc(Oc5ccccc5)ccc4O[C@]3(C)CC[C@@H]12
inhibition at 150 µM [1]: < 60% | inhibition at 150 µM [2]: < 60% | inhibition at 150 µM [3]: < 60% | inhibition at 150 µM [4]: < 60% | inhibition at 150 µM [5]: < 60%

C=CCOc1ccc2c(c1)C[C@@H]1[C@@]3(C)CCCC(C)(C)[C@@H]3CC[C@@]1(C)O2
inhibition at 150 µM [1]: < 60% | inhibition at 150 µM [2]: < 60% | inhibition at 150 µM [3]: < 60% | inhibition at 150 µM [4]: < 60% | inhibition at 150 µM [5]: < 60%

CC1(C)CCC[C@@]2(C)C1CC[C@@]1(C)Oc3ccc(-c4ccc(F)cc4)cc3C[C@@H]12 (stereo not given in full)
inhibition at 150 µM [1]: < 60% | inhibition at 150 µM [2]: < 60% | inhibition at 150 µM [3]: < 60% | inhibition at 150 µM [4]: < 60% | inhibition at 150 µM [5]: < 60%

CC1(C)CCC[C@]2(C)[C@H]3Cc4cc(OCc5ccccc5)ccc4O[C@]3(C)CC[C@@H]12
inhibition at 150 µM [1]: < 60% | inhibition at 150 µM [2]: < 60% | inhibition at 150 µM [3]: < 60% | inhibition at 150 µM [4]: < 60% | inhibition at 150 µM [5]: < 60%

CC1(C)CCC[C@]2(C)[C@H]3Cc4cc(OC(=O)c5cccnc5Cl)ccc4O[C@]3(C)CC[C@@H]12
inhibition at 150 µM [1]: < 60% | inhibition at 150 µM [2]: < 60% | inhibition at 150 µM [3]: < 60% | inhibition at 150 µM [4]: < 60% | inhibition at 150 µM [5]: < 60%

CC1(C)CCC[C@@]2(C)C1CC[C@@]1(C)Oc3ccc(-c4ccsc4)cc3C[C@@H]12 (stereo not given in full)
inhibition at 150 µM [1]: < 60% | inhibition at 150 µM [2]: < 60% | inhibition at 150 µM [3]: < 60% | inhibition at 150 µM [4]: < 60% | inhibition at 150 µM [5]: < 60%

CC1(C)CCC[C@]2(C)[C@H]3Cc4c(O)cccc4O[C@]3(C)CC[C@@H]12
inhibition at 150 µM [1]: 75% | inhibition at 150 µM [2]: 52% | inhibition at 150 µM [3]: 45% | inhibition at 150 µM [4]: 43% | inhibition at 150 µM [5]: 54%

CC1(C)CCC[C@]2(C)[C@H]3Cc4cc(OC(=O)c5ccccc5)ccc4O[C@]3(C)CC[C@@H]12
inhibition at 150 µM [1]: < 60% | inhibition at 150 µM [2]: < 60% | inhibition at 150 µM [3]: < 60% | inhibition at 150 µM [4]: < 60% | inhibition at 150 µM [5]: < 60%

CC1(C)CCC[C@]2(C)[C@H]3Cc4cc(OC(=O)c5ccc(F)cc5)ccc4O[C@]3(C)CC[C@@H]12
inhibition at 150 µM [1]: < 60% | inhibition at 150 µM [2]: < 60% | inhibition at 150 µM [3]: < 60% | inhibition at 150 µM [4]: < 60% | inhibition at 150 µM [5]: < 60%

CCCOc1ccc2c(c1)C[C@@H]1[C@@]3(C)CCCC(C)(C)[C@@H]3CC[C@@]1(C)O2
inhibition at 150 µM [1]: < 60% | inhibition at 150 µM [2]: < 60% | inhibition at 150 µM [3]: < 60% | inhibition at 150 µM [4]: < 60% | inhibition at 150 µM [5]: < 60%

CC1(C)CCC[C@]2(C)[C@H]3Cc4cc(O)cc(O)c4[C@]3(C)CC[C@@H]12
inhibition at 150 µM [1]: 68% | inhibition at 150 µM [2]: 43% | inhibition at 150 µM [3]: 49% | inhibition at 150 µM [4]: 60% | inhibition at 150 µM [5]: 65%

CC1(C)CCC[C@]2(C)C3=CC4=CC(=O)C(=O)C=C4O[C@]3(C)CC[C@@H]12
inhibition at 150 µM [1]: 15% | inhibition at 150 µM [2]: 37% | inhibition at 150 µM [3]: -2% | inhibition at 150 µM [4]: 44% | inhibition at 150 µM [5]: 18%

CC1(C)CCC[C@@]2(C)[C@H]1CCC1(C)Oc3ccc(Oc4cccnc4)cc3C[C@@H]12 (single isomer, unassigned)
inhibition at 150 µM [1]: < 60% | inhibition at 150 µM [2]: < 60% | inhibition at 150 µM [3]: < 60% | inhibition at 150 µM [4]: < 60% | inhibition at 150 µM [5]: < 60%

CC1(C)CCC[C@]2(C)[C@H]3Cc4cccc(O)c4O[C@]3(C)CC[C@@H]12
inhibition at 150 µM [1]: 53% | inhibition at 150 µM [2]: 22% | inhibition at 150 µM [3]: 21% | inhibition at 150 µM [4]: 31% | inhibition at 150 µM [5]: 40%

CC1(C)CCC[C@@]2(C)C1CC[C@@]1(C)Oc3ccc(-c4cccnc4)cc3C[C@@H]12 (stereo not given in full)
inhibition at 150 µM [1]: < 60% | inhibition at 150 µM [2]: < 60% | inhibition at 150 µM [3]: < 60% | inhibition at 150 µM [4]: < 60% | inhibition at 150 µM [5]: < 60%

CC1(C)CCC[C@@]2(C)C1CC[C@@]1(C)Oc3ccc(OC(=O)Nc4ccc(F)cc4)cc3C[C@@H]12 (stereo not given in full)
inhibition at 150 µM [1]: < 60% | inhibition at 150 µM [2]: < 60% | inhibition at 150 µM [3]: < 60% | inhibition at 150 µM [4]: < 60% | inhibition at 150 µM [5]: < 60%

COc1ccc2c(c1)C[C@@H]1[C@@]3(C)CCCC(C)(C)[C@@H]3CC[C@@]1(C)O2
inhibition at 150 µM [1]: < 60% | inhibition at 150 µM [2]: < 60% | inhibition at 150 µM [3]: < 60% | inhibition at 150 µM [4]: < 60% | inhibition at 150 µM [5]: < 60%

CC1(C)CCC[C@]2(C)[C@H]3Cc4cc(O)ccc4O[C@]3(C)CC[C@@H]12
inhibition at 150 µM [1]: < 60% | inhibition at 150 µM [2]: < 60% | inhibition at 150 µM [3]: < 60% | inhibition at 150 µM [4]: < 60% | inhibition at 150 µM [5]: < 60%

CC(C)(C)C(=O)Oc1ccc2c(c1)C[C@@H]1[C@@]3(C)CCCC(C)(C)[C@@H]3CC[C@@]1(C)O2
inhibition at 150 µM [1]: < 60% | inhibition at 150 µM [2]: < 60% | inhibition at 150 µM [3]: < 60% | inhibition at 150 µM [4]: < 60% | inhibition at 150 µM [5]: < 60%

CCOc1ccc2c(c1)C[C@@H]1[C@@]3(C)CCCC(C)(C)[C@@H]3CC[C@@]1(C)O2
inhibition at 150 µM [1]: < 60% | inhibition at 150 µM [2]: < 60% | inhibition at 150 µM [3]: < 60% | inhibition at 150 µM [4]: < 60% | inhibition at 150 µM [5]: < 60%

CC1(C)CCC[C@@]2(C)C1CC[C@@]1(C)Oc3ccc(-c4ccncc4)cc3C[C@@H]12 (stereo not given in full)
inhibition at 150 µM [1]: < 60% | inhibition at 150 µM [2]: < 60% | inhibition at 150 µM [3]: < 60% | inhibition at 150 µM [4]: < 60% | inhibition at 150 µM [5]: < 60%

COc1ccc(C(=O)Oc2ccc3c(c2)C[C@@H]2[C@@]4(C)CCCC(C)(C)[C@@H]4CC[C@@]2(C)O3)cc1
inhibition at 150 µM [1]: < 60% | inhibition at 150 µM [2]: < 60% | inhibition at 150 µM [3]: < 60% | inhibition at 150 µM [4]: < 60% | inhibition at 150 µM [5]: < 60%

COc1cc2c(cc1OC)O[C@]1(C)CC[C@H]3C(C)(C)CCC[C@]3(C)[C@H]1C2
inhibition at 150 µM [1]: 13% | inhibition at 150 µM [2]: 21% | inhibition at 150 µM [3]: 9% | inhibition at 150 µM [4]: 29% | inhibition at 150 µM [5]: 5%

CC1(C)CCC[C@]2(C)[C@H]3Cc4cc(OC(=O)c5ccccn5)ccc4O[C@]3(C)CC[C@@H]12
inhibition at 150 µM [1]: < 60% | inhibition at 150 µM [2]: < 60% | inhibition at 150 µM [3]: < 60% | inhibition at 150 µM [4]: < 60% | inhibition at 150 µM [5]: < 60%
